The source of these data is US20200080053A1, “USE OF PEPTIDE COMPOUNDS FOR PROMOTING SURVIVAL, GROWTH AND CELL DIFFERENTIATION” (Axoltis Pharma, priority 2016, published 2020).

Entries after “also recorded” stand apart in the source; their conditions may differ.

For assay [1], the system named is 129S v/J embryonic stem cells (ESCs). Description: Early differentiation of ESCs on gelatin without LIF and serum, nestin/MAP2 immunocytochemistry. It is filed as cell-based. How it is done:
129S v/J embryonic stem cells (ESCs) were seeded at a concentration of 0.7×10^6 cells in 35 mm diameter Petri dishes covered with a gelatin substrate.
The culture medium used was the Glasgow's minimal essential medium (G-MEM) supplemented with N2 supplement.
To enable differentiation of ESCs into neuroepithelial progenitors, the culture medium was deprived of LIF (Leukemia Inhibitory factor) because LIF is a key factor of the self-renewal of ESCs.
The various tests were carried out in absence of serum because serum limits the possibility to specifically orientate the differentiation and it could hide, or at least reduce, the effects of the peptide compound of the invention.
ESCs were grown in the culture medium as defined above with addition of 0.5 mg/ml NX210 (SEQ ID NO: 6) at day 1, 3 and 5.
Then, cultures were fixed with 4% paraformaldehyde after 7 days of culture.
To analyze the differentiation of ESCs into neuroepithelial progenitors and into differentiated neurons, the various cell types were visualized by immunocytochemistry: • using a primary anti-nestin antibody (nestin=intermediate filament protein), specific of neuroepithelial progenitors, and • using a primary anti-MAP2 antibody (MAP2=microtubule associated protein 2), specific of dendrites, and thus specific of differentiated neurons.
The total number of cells was measured by labelling nuclei using bisbenzimide/Hoechst 33342, a fluorescent dye with an affinity for DNA that is commonly used to color nuclei in blue.

The test system of assay [2] is human mesenchymal stem cells (hMSC). The assay is described as follows: Neural differentiation of hMSCs: gene expression by real-time PCR. Type of assay: cell-based. Here is the method: To investigate the neural differentiation capacity of the peptides, 25 cm^2 flasks and 12-wells culture plates were coated with sterile aqueous solutions of either NX210 or NS640 at a concentration of 80 μg/cm^2. Coatings were carried out at 37° C. and 5% CO2 over-night prior to cell plating.
On Day 0 (D0), hMSC were seeded at a concentration of 3,000 cells/cm^2 in pre-coated 25 cm^2 flasks or 12-well culture plates in complete medium and culture was placed at 37° C. in a humid environment and under 5% CO2. After 24h, medium was changed and replaced by different combinations of media containing either: MEMalpha—bFGF 12.5 ng/mL—FBS 2%—P/S 0.1%; MEMalpha—bFGF 12.5 ng/mL—FBS 10%—P/S 0.1%; MEMalpha—FBS 2%—P/S 0.1% (control condition); MEMalpha—FBS 10%—P/S 0.1% (control condition). The cells were placed at 37° C. in a humid environment and under 5% CO2, and medium was changed twice a week. On Day 8, medium was replaced by medium containing ATRA in the place of bFGF and thus was changed with: MEMalpha—ATRA […]—FBS 2%—P/S 0.1%; MEMalpha—ATRA 20 μM—FBS 10%—P/S 0.1%; MEMalpha—FBS 2%—P/S 0.1% (control condition); MEMalpha—FBS 10%—P/S 0.1% (control condition). The cells were placed at 37° C. in a humid environment and under 5% CO2. Medium was changed twice a week. […]
Total RNA was extracted using RNAeasy total purification kit following instructions of the manufacturer (Qiagen). cDNA were generated using a High-Capacity cDNA Reverse Transcription kit (Applied Biosystems) as described by the manufacturer.
The expression levels of genes (GFAP, Musashi 1, Nestin, Beta3-Tubuline, MAP-2 and GAPDH) were analyzed by real-time PCR using TaqMan gene Expression Master Mix (Applied Biosystems) on the Applied Biosystems 7900 Real time PCR system (Life technologies). Samples were analyzed in triplicates. Data were normalized using the GAPDH gene as an internal control and relative quantification (RQ) of the genes in a sample was determined according to the equation 2^−Δct.
On the technique in general: Real-time PCR tracks product formation cycle by cycle.

On to “W-S-G-W-S-S-C-S-R-S-C-G (WSGWSSCSRSCG) [NX210]”, for which the “population of ESCs expressing the nestin protein” value in assay [1] (0.5 mg/ml NX210, 7 days of culture on gelatin, compared to culture in the absence of NX210) is given as “reduced; also recorded: few Nestin+cells”. Besides, in assay [1] (0.5 mg/ml NX210, 7 days of culture, no MAP2 cells in the absence of NX210), the “cells expressing the MAP2 protein (differentiated neurons)” value was “some cells expressing the MAP2 protein”. In addition, the “orientation of ESCs to the neuronal differentiation pathway” value in assay [1] (0.5 mg/ml NX210, in terms of kinetics) is given as “induces a preferential orientation of ESCs to the neuronal differentiation pathway”. Moreover, the “MAP2+ cells in ESCs (FIG. 2)” value in assay [1] (after 5 days in the presence of 0.5 mg/ml NX210, compared to control culture) was “only observed in presence of NX210”. For the same substance, the “effect of peptide coating on the increase in Nestin, βIII-Tubulin and MAP-2 gene expression” value in assay [2] (bFGF then ATRA, 2% FBS, peptide coating 80 μg/cm2) is on record as “does not modify this increase”. Besides, the MAP-2 expression in assay [2] (bFGF then ATRA, 10% FBS, peptide coating, vs ×0.75 without peptide (FIG. 5)) was 1.21 ×; in assay [2] (patient no 2, D5, with bFGF (FIG. 7)), “increased”. Also, the Nestin expression in assay [2] (bFGF then ATRA, 10% FBS, peptide coating, vs ×1.2 without peptide (FIG. 5)) is 2 ×; in assay [2] (patient no 1, day 5, bFGF 10% without ATRA (FIG. 6)), 2 ×; in assay [2] (patient no 2, bFGF 10% without ATRA, with or without coating (FIG. 7)) it was 1.95 ×. Also, the βIII-Tubuline expression entry in assay [2] (patient no 2, after 5 days of culture, with bFGF (FIG. 7)) was “maximized”.
